Where “and” joins values, the source holds several entries; their conditions need not be identical. Equal entries are not always repeated. Where a SMILES comes first, the peptide text is derived from it.

The target of the experiment is Mu-type opioid receptor (Rattus norvegicus, UniProt P33535).
Chain of Mu-type opioid receptor (P33535 whole entry): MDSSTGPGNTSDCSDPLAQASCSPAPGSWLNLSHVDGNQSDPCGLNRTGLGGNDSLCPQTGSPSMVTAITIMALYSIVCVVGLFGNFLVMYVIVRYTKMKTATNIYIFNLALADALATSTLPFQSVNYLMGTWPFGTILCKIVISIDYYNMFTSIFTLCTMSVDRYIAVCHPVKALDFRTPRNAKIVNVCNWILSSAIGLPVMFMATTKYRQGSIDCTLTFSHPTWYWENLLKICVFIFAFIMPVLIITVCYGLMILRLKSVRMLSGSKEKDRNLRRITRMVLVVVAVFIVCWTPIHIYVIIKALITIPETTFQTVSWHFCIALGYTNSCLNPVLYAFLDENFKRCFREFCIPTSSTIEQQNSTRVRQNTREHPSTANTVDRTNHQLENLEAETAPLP
Broadly, the Ki is the equilibrium dissociation constant of an inhibitor or competing ligand from its target. A higher Ki goes with a looser hold on the target. The molecule `NC(=O)[C@@H]1CCCN1C(=O)[C@H](Cc1ccccc1)NC(=O)[C@@H]1CCCN1C(=O)[C@@H](N)Cc1ccc(O)cc1` [CAS_79805-24-6] (H-YPFP-NH2) came in with a Ki of 1.16 µM.

`CC(C)[C@H](NC(=O)[C@H](Cc1ccccc1)NC(=O)[C@@H]1CCCN1C(=O)[C@@H](N)Cc1ccc(O)cc1)C(N)=O` (H-YPFV-NH2): the inhibition constant (Ki) was 0.037 µM and 0.0161 µM.

`NC(=O)[C@@H]1CCCN1C(=O)[C@@H](Cc1ccccc1)NC(=O)[C@@H]1CCCN1C(=O)[C@@H](N)Cc1ccc(O)cc1` [Morphiceptin] (HELM PEPTIDE1{Y.P.[dF].P.[am]}$$$$V2.0): the Ki was 0.063 µM and 0.0349 µM.

These data come from BindingDB's records for PubMed 3033464 (Burroughs Wellcome, 1987).
